Data published in a compilation of properties of binary mixtures (doi:10.1021/je3004904).

Assay: xn = mol fraction of the nth substance listed
Conditions: 101 kPa

[Cl][Al]([Cl])[Cl] + CCCC[n+]1ccn(C)c1.[Cl-]
Conditions	electrical conductivity [S/m]	viscosity [mPa·s]
293.15 K, x1 = 0.5	–	41.63
293.15 K, x1 = 0.5238	–	38.28
293.15 K, x1 = 0.545	–	35.03
293.15 K, x1 = 0.5454	–	34.99
293.15 K, x1 = 0.5653	–	32.26
293.15 K, x1 = 0.583	–	30.37
293.15 K, x1 = 0.5834	–	30.34
293.15 K, x1 = 0.6001	–	28.34
293.15 K, x1 = 0.615	–	26.91
293.15 K, x1 = 0.6154	–	26.89
293.15 K, x1 = 0.6296	–	25.31
293.15 K, x1 = 0.6429	–	24.35
293.15 K, x1 = 0.6551	–	23.44
293.15 K, x1 = 0.6667	–	22.54
298.15 K, x1 = 0.583	0.947	25.24
298.15 K, x1 = 0.615	0.931	22.59
298.15 K, x1 = 0.643	0.919	20.62
298.15 K, x1 = 0.667	0.912	19.42
303.15 K, x1 = 0.5	–	28.33
303.15 K, x1 = 0.545	1.14	24.35
303.15 K, x1 = 0.5454	–	24.32
303.15 K, x1 = 0.583	1.1	21.38
303.15 K, x1 = 0.5834	–	21.36
303.15 K, x1 = 0.6001	–	20.2
303.15 K, x1 = 0.615	1.07	19.34
303.15 K, x1 = 0.6154	–	19.33
303.15 K, x1 = 0.6296	–	18.29
303.15 K, x1 = 0.6551	–	17.1
303.15 K, x1 = 0.6667	–	16.73
308.15 K, x1 = 0.545	1.32	20.84
308.15 K, x1 = 0.583	1.26	18.31
308.15 K, x1 = 0.643	1.21	15.39
308.15 K, x1 = 0.667	1.2	14.59
313.15 K, x1 = 0.5	–	20.76
313.15 K, x1 = 0.5238	–	19.48
313.15 K, x1 = 0.545	1.51	18.1
313.15 K, x1 = 0.5653	–	16.92
313.15 K, x1 = 0.583	1.44	16.03
313.15 K, x1 = 0.5834	–	16.01
313.15 K, x1 = 0.6001	–	15.28
313.15 K, x1 = 0.615	1.39	14.61
313.15 K, x1 = 0.6296	–	13.96
313.15 K, x1 = 0.6429	–	13.53
313.15 K, x1 = 0.643	1.36	13.54
313.15 K, x1 = 0.6551	–	13.12
313.15 K, x1 = 0.6667	–	12.87
313.15 K, x1 = 0.667	1.34	12.87
318.15 K, x1 = 0.545	1.71	15.92
318.15 K, x1 = 0.583	1.63	14.15
318.15 K, x1 = 0.615	1.57	12.78
318.15 K, x1 = 0.643	1.52	12.04
323.15 K, x1 = 0.5238	–	15.16
323.15 K, x1 = 0.545	1.93	14.15
323.15 K, x1 = 0.5653	–	13.29
323.15 K, x1 = 0.583	1.83	12.61
323.15 K, x1 = 0.5834	–	12.6
323.15 K, x1 = 0.6001	–	12.09
323.15 K, x1 = 0.615	1.76	11.56
323.15 K, x1 = 0.6154	–	11.55
323.15 K, x1 = 0.6429	–	10.78
323.15 K, x1 = 0.643	1.69	10.8
323.15 K, x1 = 0.6551	–	10.48
323.15 K, x1 = 0.6667	–	10.17
323.15 K, x1 = 0.667	1.66	10.17
328.15 K, x1 = 0.545	2.15	12.7
328.15 K, x1 = 0.583	2.04	11.34
328.15 K, x1 = 0.615	1.95	10.45
328.15 K, x1 = 0.667	1.83	9.05
333.15 K, x1 = 0.5	–	12.95
333.15 K, x1 = 0.545	2.39	11.49
333.15 K, x1 = 0.5454	–	11.47
333.15 K, x1 = 0.5653	–	10.83
333.15 K, x1 = 0.583	2.26	10.29
333.15 K, x1 = 0.5834	–	10.28
333.15 K, x1 = 0.6154	–	9.49
333.15 K, x1 = 0.6429	–	8.88
333.15 K, x1 = 0.643	2.07	8.88
333.15 K, x1 = 0.6551	–	8.63
333.15 K, x1 = 0.6667	–	8.23
333.15 K, x1 = 0.667	2.01	8.23
338.15 K, x1 = 0.545	2.63	10.48
338.15 K, x1 = 0.583	2.49	9.4
338.15 K, x1 = 0.615	2.38	8.69
338.15 K, x1 = 0.643	2.28	8.14
338.15 K, x1 = 0.667	2.2	7.43
343.15 K, x1 = 0.5	–	10.78
343.15 K, x1 = 0.5238	–	10.26
343.15 K, x1 = 0.545	2.88	9.63
343.15 K, x1 = 0.5653	–	9.09
343.15 K, x1 = 0.583	2.73	8.64
343.15 K, x1 = 0.6001	–	8.34
343.15 K, x1 = 0.615	2.6	8.01
343.15 K, x1 = 0.6154	–	8.01
343.15 K, x1 = 0.6296	–	7.73
343.15 K, x1 = 0.643	2.5	7.5
343.15 K, x1 = 0.6551	–	7.209
343.15 K, x1 = 0.6667	–	6.824
343.15 K, x1 = 0.667	2.4	6.824
